Laboratory results taken from US7767665B2, “1,3-benzothiazinone derivatives and use thereof” (Takeda Pharmaceutical Company Limited, priority 2001, dated 2010).

Experiments:
[1] = test system: primary heart muscle cells from newborn rats; assay: Inhibitory activity on heart muscle cell apoptosis (serum-free culture, viable cell number by WST-8); type: cell-based, Wister rats; conditions: Rattus norvegicus, 96 h; mean of three independent experiments; concentration required to increase the mean viable cell number by 50% as compared with that in the absence of test compounds; serum-free Medium 199, 4 days
Excerpt: Inhibitory Activity on Heart Muscle Cell Apoptosis
Newborn rats (within 1 day afterbirth) were obtained from pregnant Wister rats purchased from Charles River, anesthetized under ether, and sterilized with 70% ethanol, and then their hearts were excised with tweezers. The excised hearts were washed with a phosphate-buffered physiological saline (T900; Takara) and cut into pieces with surgical scissors. These tissue pieces were washed 4 to 5 times with a phosphate-buffered physiological saline to remove a majority of blood-derived non-heart muscle cells. To the tissue pieces derived from 10 newborns, 5 ml of enzyme solution (1.25 mg trypsin (Difco) and 0.25 mg collagenase (Sigma) per ml of phosphate-buffered saline (PBS)) was added and the mixture was stirred with a stirrer at 37° C. for 15 minutes. Another 2.5 ml enzyme solution was then added twice repeatedly at a 15-minutes interval. Then, Medium 199 (Gibco) containing 10% fetal calf serum (Biowiker) was added in a half volume of the enzyme solution to terminate the enzyme reaction. The cells were filtered through a Cell Strainer (Falcon) and then centrifuged at 400×g for 5 minutes, whereby the cells were collected.
The cells thus collected from 10 newborns were suspended in 50 ml Medium 199 containing 10% fetal calf serum, plated onto 100 mm Petri dishes (Iwaki) in a volume of 10 ml/dish and cultured for 1 hour in a CO2 incubator set at 5% CO2 and 37° C. The cells were then recovered, filtered through a Cell Strainer and centrifuged at 400×g for 5 minutes to collect the primary heart muscle cells derived from newborn rats.
Then, the heart muscle cells from 10 newborn rats were suspended in 2 ml low-isotonic solution (prepared by dissolving 8.29 g NH4Cl, 1.0 g KHCO3, 37 mg EDTA/2Na (ethylenediaminetetraacetic acid disodium) (Dojindo) in 1 L of water) and left for 3 minutes to disrupt erythrocytes. After 10 ml Medium 199 containing 10% fetal calf serum was added thereto, the primary heart muscle cells from newborn rats were collected by centrifugation at 400×g for 5 minutes. The cells were suspended in Medium 199 containing 10% fetal calf serum and then filtered through a cell strainer. After 0.3% trypan blue was added to, and mildly mixed with, an aliquot of the resulting cell suspension, the number of heart muscle cells was counted on an erythrocyte counting plate.
The primary heart muscle cells from newborn rats were suspended at a density of 3×10^6 cells/ml in Medium 199 containing 10% fetal calf serum, put onto a 96-well plate in a volume of 0.1 ml/well, and then cultured in a CO2 incubator set at 5% CO2 and 37° C. After the plate was stirred with a micromixer (Taiyo Kagaku Kogyo), the medium was exchanged 3 times with serum-free Medium 199, and then test compounds were added thereto. The cells were cultured for additional 4 days to induce apoptosis. Then, fetal calf serum was added thereto at a concentration of 10%, and the cells were further cultured for about 17 hours in a CO2 incubator set at 5% CO2 and 37° C. Finally, the number of viable cells was determined with Cell Counting Kit (Dojindo) using WST-8 (2-(2-methoxy-4-nitrophenyl)-3-(4-nitrophenyl)-5-(2,4-disulfophenyl)-2H-tetrazolium, monosodium salt) as the coloring substrate to determine the inhibition of the heart muscle cell apoptosis.
The above-mentioned experiment was triplicated in an independent manner.
The Mean minimal effective concentration (±SD) was shown for each test compound (Compounds 1 to 5 obtained in Reference Examples) in Table 1. In Table 1, the minimal effective concentration is defined as the concentration required to increase the mean viable cell number by 50% as compared with that in the absence of test compounds.

SMILES | minimal effective concentration [1] [µM] | melting point
Cc1ccc(S(=O)(=O)c2cccc(-c3nc(=O)c4ccccc4s3)n2)cc1 [Example 64, 2-{6-[(4-Methylphenyl)sulfonyl]-2-pyridyl}-4H-1,3-benzothiazine-4-one] | 0.052 | 219.6 °C (dec.)
O=c1nc(-c2ccccn2)sc2cc(Cl)ccc12 [Example 10, 7-Chloro-2-(2-pyridyl)-4H-1,3-benzothiazine-4-one] | 0.023 | 245.3 to 245.6 °C
O=C(O)CCOCCCc1cccc(-c2nc(=O)c3ccccc3s2)n1 [Example 67, 3-{3-[6-(4-Oxo-4H-1,3-benzothiazin-2-yl)-2-pyridyl]propoxy}propionic acid] | 0.031 | 141 to 142 °C
CCN(CC)C(=O)c1cccc(-c2nc(=O)c3ccccc3s2)n1 [Example 105, N,N-Diethyl-6-(4-oxo-4H-1,3-benzothiazin-2-yl)-2-pyridinecarboxamide] | 0.028 | 194 to 194.3 °C
COCCNC(=O)c1cccc(-c2nc(=O)c3ccccc3s2)n1 [Example 83, N-(2-Methoxyethyl)-6-(4-oxo-4H-1,3-benzothiazin-2-yl)-2-pyridinecarboxamide] | 0.027 | 175.5 to 176.7 °C
CN(C(=O)c1ccco1)c1cccc(-c2nc(=O)c3ccccc3s2)n1 [Example 112, N-Methyl-N-[6-(4-oxo-4H-1,3-benzothiazin-2-yl)-2-pyridyl]-2-furamide] | 0.051 | 186.2 to 187.2 °C
O=C(NCC(F)(F)F)c1cccc(-c2nc(=O)c3ccccc3s2)n1 [Example 82, 6-(4-Oxo-4H-1,3-benzothiazin-2-yl)-N-(2,2,2-trifluoroethyl)-2-pyridinecarboxamide] | 0.011 | 242.6 to 244.2 °C
O=c1nc(-c2ccc(C(F)(F)F)cn2)sc2ccccc12 [Example 49, 2-[5-(trifluoromethyl)-2-pyridyl]-4H-1,3-benzothiazine-4-one] | 0.043 | 207.2 to 207.4 °C
CCCCN(C)C(=O)c1cccc(-c2nc(=O)c3ccccc3s2)n1 [Example 103, N-Butyl-N-methyl-6-(4-oxo-4H-1,3-benzothiazin-2-yl)-2-pyridinecarboxamide] | 0.042 | 80 to 81.6 °C
Cc1ccnc(-c2nc(=O)c3ccc(Cl)cc3s2)c1 [Example 29, 7-Chloro-2-(4-methyl-2-pyridyl)-4H-1,3-benzothiazine-4-one] | 0.035 | 246.2 to 246.7 °C
O=C(c1cccc(-c2nc(=O)c3ccccc3s2)n1)N1CCCC1 [Example 104] | 0.019 | 232 to 234 °C
O=C(O)CCOCCCc1ccnc(-c2nc(=O)c3ccccc3s2)c1 [Example 102, 3-[3-[2-(4-Oxo-4H-1,3-benzothiazin-2-yl)-4-pyridyl]propoxy]propanoic acid] | 0.036 | 153.8 to 153.9 °C
CCCNC(=O)c1cccc(-c2nc(=O)c3ccccc3s2)n1 [Example 50, 6-(4-Oxo-4H-1,3-benzothiazin-2-yl)-N-propyl-2-pyridinecarboxamide] | 0.02 | 179.7 to 181.4 °C
O=C(O)CCOCCCc1ccc(-c2nc(=O)c3ccccc3s2)nc1 [Example 99, 3-{3-[6-(4-Oxo-4H-1,3-benzothiazin-2-yl)-3-pyridyl]propoxy}propionic acid] | 0.043 | 145.2 to 146.6 °C
COc1cc(-c2nc(=O)c3ccccc3s2)ccn1 [Example 70, 2-(2-Methoxy-4-pyridyl)-4H-1,3-benzothiazine-4-one] | 0.017 | 148.8 to 150.5 °C
CC(C)(C)OC(=O)NCCCCCCNC(=O)c1cccc(-c2nc(=O)c3ccccc3s2)n1 [Example 106, tert-Butyl [[[6-(4-oxo-4H-1,3-benzothiazin-2-yl)-2-pyridyl]carbonyl]amino]hexylcarbamate] | 0.052 | 145.1 to 145.4 °C

SMILES | minimal effective concentration [1] [µM] | melting point
O=c1nc(-c2ccc(CO)cn2)sc2ccccc12 [Example 48, 2-[5-(hydroxymethyl)-2-pyridyl]-4H-1,3-benzothiazine-4-one] | 0.043 | 246.9 to 247.9 °C
CSc1cc(-c2nc(=O)c3ccccc3s2)ccn1 [Example 68, 2-(2-Methylthio-4-pyridyl)-4H-1,3-benzothiazine-4-one] | 0.018 | 173.4 to 173.5 °C
CN(C)C(=O)N(Cc1ccccc1)C(=O)c1cccc(-c2nc(=O)c3ccccc3s2)n1 [Example 53, N-Benzyl-N′,N′-dimethyl-N-[[6-(4-oxo-4H-1,3-benzothiazin-2-yl)-2-pyridyl]carbonyl]-urea] | 0.032 | 222.2 to 224 °C
O=C(O)CCc1cccc(-c2nc(=O)c3ccccc3s2)n1 [Example 79, 3-[6-(4-Oxo-4H-1,3-benzothiazin-2-yl)-2-pyridyl]propionic acid] | 0.061 | 243.2 to 243.5 °C
CCCN(C(=O)c1cccc(-c2nc(=O)c3ccccc3s2)n1)C(=O)N(C)C [Example 52, N,N-Dimethyl-N′-[[6-(4-oxo-4H-1,3-benzothiazin-2-yl)-2-pyridyl]carbonyl]-N′-propylurea] | 0.01 | 190.8 to 192.4 °C
CN(C(=O)c1ccccc1)c1cccc(-c2nc(=O)c3ccccc3s2)n1 [Example 113, N-Methyl-N-[6-(4-oxo-4H-1,3-benzothiazin-2-yl)-2-pyridyl]benzamide] | 0.022 | 234 to 235.4 °C
NC(=O)c1cccc(-c2nc(=O)c3ccccc3s2)n1 [Example 38, 6-(4-Oxo-4H-1,3-benzothiazin-2-yl)-2-pyridinecarboxamide] | 0.013 | 294.6 to 294.9 °C
O=c1nc(-c2cc[n+]([O-])cc2)sc2ccccc12 [Example 55] | 0.016 | 248.2 to 251.7 °C
O=c1nc(-c2cnccn2)sc2cc(Cl)ccc12 [Example 30, 7-Chloro-2-(2-pyrazyl)-4H-1,3-benzothiazine-4-one] | 0.012 | 240.6 to 240.9 °C
CN(C(=O)C1CCCCC1)c1cccc(-c2nc(=O)c3ccccc3s2)n1 [Example 115, N-methyl-N-[6-(4-oxo-4H-1,3-benzothiazin-2-yl)-2-pyridyl]cyclohexanecarboxamide] | 0.052 | 184.4 to 185.8 °C
O=c1nc(-c2cccc(OCc3ccccc3)n2)sc2ccccc12 [Example 57, 2-[6-(Benzyloxy)-2-pyridyl]-4H-1,3-benzothiazine-4-one] | 0.033 | 240.9 to 241 °C
O=C(O)c1cccc(-c2nc(=O)c3ccccc3s2)n1 [Example 81, 6-(4-Oxo-4H-1,3-benzothiazin-2-yl)-2-pyridinecarboxylic acid] | 0.012 | 260.2 to 260.5 °C
COc1cccc(-c2nc(=O)c3ccccc3s2)n1 [Example 56, 2-(6-Methoxy-2-pyridyl)-4H-1,3-benzothiazine-4-one] | 0.039 | 226 to 226.1 °C
CC(C)(C)Sc1cccc(-c2nc(=O)c3ccccc3s2)n1 [Example 128, 2-[6-(tert-Butylthio)-2-pyridyl]-4H-1,3-benzothiazine-4-one] | 0.081 | 152.9 to 153.8 °C
CC(C)(C)OC(=O)c1cccc(-c2nc(=O)c3ccccc3s2)n1 [Example 80, tert-Butyl 6-(4-oxo-4H-1,3-benzothiazin-2-yl)-2-pyridinecarboxylate] | 0.035 | 185 to 185.5 °C
